Values of other authors as cited in US20080269177A1, “PESTICIDAL COMPOSITIONS” (ECOSMART TECHNOLOGIES, INC., priority 2007, published 2008).

Legend:
[1] = even at the lowest doses, 30 mg/kg/day
[2] = even treatments as low as 1.2%

Compound: CCCCOCCOCCOCc1cc2c(cc1CCC)OCO2 [PBO, piperonyl butoxide]
- liver weights in chronic toxicity studies [1]: increased liver weights
- tumour finding in animal studies [2]: hepatocellular carcinomas
